In patent US9073821B2, “Hydroxamic acid derivative” (priority 2010, dated 2015):
pIC50: −log10 of the molar value.

Target: Pseudomonas aeruginosa LpxC enzyme (Pseudomonas aeruginosa (strain ATCC 15692 / DSM 22644 / CIP 104116 / JCM 14847 / LMG 12228 / 1C / PRS 101 / PAO1), UniProt P47205)
Test: biochemical
Format: biochemical
Conditions: class symbols A/B/C by IC50; Table 3; read-out: Enzyme inhibitory activity (inhibitory activity on Pseudomonas aeruginosa LpxC enzyme)
Protocol: Test 1: Evaluation of the Inhibitory Activity on Pseudomonas aeruginosa LpxC Enzyme
An inhibition curve was constructed for each test compound by performing the aforementioned reaction at varying concentrations of the test compound. From this inhibition curve, the concentration of the test compound at which the formation of the reaction product was suppressed by 50% was determined as the IC50 of the test compound, which was an index for the inhibitory activity on Pseudomonas aeruginosa LpxC enzyme.

| pIC50 | Compound |
| --- | --- |
| 7.00 to 8.00 | CCN1Cc2cc(C#Cc3ccc(C(=O)N(C)C(C(=O)NC)C(=O)NO)cc3)ccc2[C@H]1C (stereo partly drawn) [Compound 516, 2-{[(4-{[(1R)-2-ethyl-1-methyl-2,3-dihydro-1H-isoindol-5-yl]ethynyl}phenyl)carbonyl](methyl)amino}-N-hydroxy-N′-methylpropanediamide] |
| < 7.00 | CNC(=O)C(C(=O)NO)N(C)C(=O)c1ccc(C#CC2CC2)cc1 (stereo not shown) [Compound 503, 2-[{[4-(cyclopropylethynyl)phenyl]carbonyl}(methyl)amino]-N-hydroxy-N′-methylpropanediamide] |
| > 8.00 | CNC(=O)C(C(=O)NO)N(C)C(=O)c1ccc(C#Cc2ccc(CN(C)Cc3ccccc3)cc2)cc1 (stereo not shown) [Compound 495, 2-[({4-[(4-{[benzyl(methyl)amino]methyl}phenyl)ethynyl]phenyl}carbonyl)(methyl)amino]-N-hydroxy-N′-methylpropanediamide] |
| > 8.00 | CCOC1CN(Cc2ccc(C#Cc3ccc(C(=O)N(C)C(C(=O)NC)C(=O)NO)cc3)cc2C)C1 (stereo not shown) [Compound 562, 2-[{[4-({4-[(3-ethoxyazetidin-1-yl)methyl]-3-methylphenyl}ethynyl)phenyl]carbonyl}(methyl)amino]-N-hydroxy-N′-methylpropanediamide] |

Same assay, conditions: inhibitory activity on Pseudomonas aeruginosa LpxC enzyme, class symbols A/B/C; read-out: Enzyme inhibitory activity

| pIC50 | Compound |
| --- | --- |
| > 8.00 | CNC(=O)C(C(=O)NO)N(C)C(=O)c1ccc(-c2ccc(C#CCO)cc2)cc1 (stereo not shown) [Compound 389, N-hydroxy-2-[{[4′-(3-hydroxyprop-1-yn-1-yl)biphenyl-4-yl]carbonyl}(methyl)amino]-N′-methylpropanediamide] |
| > 8.00 | CNC(=O)C(C(=O)NO)N(C)C(=O)c1ccc(C#Cc2ccc(OCCN3CCOCC3)cc2)cc1 (stereo not shown) [Compound 382, N-hydroxy-N′-methyl-2-(methyl {[4-({4-[2-(morpholin-4-yl)ethoxy]phenyl}ethynyl)phenyl]carbonyl}amino)propanediamide] |
| > 8.00 | CNC(=O)C(C(=O)NO)N(C)C(=O)c1ccc(C#Cc2ccc(C(C)N3CCOCC3)cc2)cc1 (stereo not shown) [Compound 367, N-hydroxy-N′-methyl-2-(methyl {[4-({4-[1-(morpholin-4-yl)ethyl]phenyl}ethynyl)phenyl]carbonyl}amino)propanediamide] |
| 7.00 to 8.00 | CNC(=O)C(C(=O)NO)N(C)C(=O)c1cnc(-c2ccc3c(c2)OCO3)c(F)c1 (stereo not shown) [Compound 458, 2-[{[6-(1,3-benzodioxol-5-yl)-5-fluoropyridin-3-yl]carbonyl}(methyl)amino]-N-hydroxy-N′-methylpropanediamide] |
| 7.00 to 8.00 | CNC(=O)C(C)(NC(=O)c1ccc(C#Cc2ccc(CN3CCCOCC3)cc2)cc1)C(=O)NO (stereo not shown) [Compound 380, N-hydroxy-N′,2-dimethyl-2-{[(4-{[4-(1,4-oxazepan-4-ylmethyl)phenyl]ethynyl}phenyl)carbonyl]amino}propanediamide] |
| < 7.00 | CNC(=O)C(C(=O)NO)N(C)C(=O)c1ccc(Oc2ccccc2)cc1 (stereo not shown) [Compound 443, N-hydroxy-N′-methyl-2-{methyl[(4-phenoxyphenyl)carbonyl]amino}propanediamide] |
| > 8.00 | CNC(=O)C(C(=O)NO)N(C)C(=O)c1ccc(-c2ccc(-c3ccc(CN4CCOCC4)o3)cc2)cc1 (stereo not shown) [Compound 479, N-hydroxy-N′-methyl-2-[methyl({4′-[5-(morpholin-4-ylmethyl)furan-2-yl]biphenyl-4-yl}carbonyl)amino]propanediamide] |

The next lines start with the compound.

| Compound | pIC50 |
| --- | --- |
| CC(C)OCCNC(=O)C(NC(=O)c1ccc(-c2ccc(OCCO)cc2)cc1)C(=O)NO (stereo not shown) [Compound 10, N-hydroxy-2-({[4′-(2-hydroxyethoxy)biphenyl-4-yl]carbonyl}amino)-N′-[2-(propan-2-yloxy)ethyl]propanediamide] | 7.00 to 8.00 |
| CNC(=O)C(C(=O)NO)N(C)C(=O)c1ccc(-c2ccc(C(C)(C)C)cc2)cc1 (stereo not shown) [Compound 240, 2-{[(4′-tert-butylbiphenyl-4-yl)carbonyl](methyl)amino}-N-hydroxy-N′-methylpropanediamide] | 7.00 to 8.00 |
| CNC(=O)C(C(=O)NO)N(C)C(=O)C1CCC(c2ccc(Cl)cc2)CC1 (stereo not shown) [Compound 273, 2-[{[4-(4-chlorophenyl)cyclohexyl]carbonyl}(methyl)amino]-N-hydroxy-N′-methylpropanediamide] | < 7.00 |
| CNC(=O)C(C(=O)NO)N(C)C(=O)c1ccc(-c2ccc3c(c2)OC(F)(F)O3)cc1 (stereo not shown) [Compound 258, 2-{[4-(2,2-difluoro-1,3-benzodioxol-5-yl)benzoyl](methyl)amino}-N-hydroxy-N′-methylpropanediamide] | > 8.00 |
| CNC(=O)C(C(=O)NO)N(C)C(=O)c1ccc(-c2ccc3ccn(C)c3c2)cc1 (stereo not shown) [Compound 36, N-hydroxy-N′-methyl-2-{methyl[4-(1-methyl-1H-indol-6-yl)benzoyl]amino}propanediamide] | > 8.00 |
| CNC(=O)C(C(=O)NO)N(C)C(=O)c1ccc(-c2cc3ccccc3o2)cc1 (stereo not shown) [Compound 312, 2-[{[4-(1-benzofuran-2-yl)phenyl]carbonyl}(methyl)amino]-N-hydroxy-N′-methylpropanediamide] | > 8.00 |
| CNC(=O)C(C(=O)NO)N(C)C(=O)c1ccc(C#Cc2ccc(CN3CCCCC3)cc2)cc1 (stereo not shown) [Compound 234, N-hydroxy-N′-methyl-2-[methyl(4-{[4-(piperidin-1-ylmethyl)phenyl]ethynyl}benzoyl)amino]propanediamide] | > 8.00 |
| CNC(=O)C(C(=O)NO)N(C)C(=O)c1ccc(-c2ccc(OCCCN3CC(OC)C3)cc2)cc1 (stereo not shown) [Compound 276, N-hydroxy-2-[({4′-[3-(3-methoxyazetidin-1-yl)propoxy]biphenyl-4-yl}carbonyl)(methyl)amino]-N′-methylpropanediamide] | > 8.00 |
| O=C(NC(C(=O)NO)C(=O)NCc1cccnc1)c1ccc(-c2ccc(OCCO)cc2)cc1 (stereo not shown) [Compound 129, N-hydroxy-2-({[4′-(2-hydroxyethoxy)biphenyl-4-yl]carbonyl}amino)-N′-(pyridin-3-ylmethyl)propanediamide] | > 8.00 |
| CN(C(=O)c1ccc(-c2ccccc2)cc1)C(C(=O)NO)C(=O)NCc1ccncc1 (stereo not shown) [Compound 178, 2-[(biphenyl-4-ylcarbonyl)(methyl)amino]-N-hydroxy-N′-(pyridin-4-ylmethyl)propanediamide] | < 7.00 |
| CNC(=O)C(C(=O)NO)N(C)C(=O)c1ccc(-c2ccc(/C=N/N(C)C)cc2)cc1 (stereo not shown) [Compound 275, 2-[({4′-[(E)-(dimethylhydrazinylidene)methyl]biphenyl-4-yl}carbonyl)(methyl)amino]-N-hydroxy-N′-methylpropanediamide] | > 8.00 |
| Cc1cc(CNC(=O)C(NC(=O)c2ccc(-c3ccc(OCCO)cc3)cc2)C(=O)NO)no1 (stereo not shown) [Compound 133, N-hydroxy-2-({[4′-(2-hydroxyethoxy)biphenyl-4-yl]carbonyl}amino)-N′-[(5-methyl-1,2-oxazol-3-yl)methyl]propanediamide] | > 8.00 |
| CNC(=O)C(C(=O)NO)N(C)C(=O)c1ccc(-c2cccc(C)n2)cc1 (stereo not shown) [Compound 295, N-hydroxy-N′-methyl-2-(methyl {[4-(6-methylpyridin-2-yl)phenyl]carbonyl}amino)propanediamide] | < 7.00 |
| CNC(=O)C(C(=O)NO)N(C)C(=O)c1ccc(-c2ccncc2)cc1 (stereo not shown) [Compound 169, N-hydroxy-N′-methyl-2-{methyl[4-(pyridin-4-yl)benzoyl]amino}propanediamide] | 7.00 to 8.00 |
| CN(C(=O)c1ccc(-c2ccccc2)cc1)C(C(=O)NO)C(=O)NCc1cccnc1 (stereo not shown) [Compound 177, 2-[(biphenyl-4-ylcarbonyl)(methyl)amino]-N-hydroxy-N′-(pyridin-3-ylmethyl)propanediamide] | 7.00 to 8.00 |
| CNC(=O)C(C(=O)NO)N(C)C(=O)c1ccc(-c2ccc3c(ccn3CCO)c2)cc1 (stereo not shown) [Compound 31, N-hydroxy-2-[{4-[1-(2-hydroxyethyl)-1H-indol-5-yl]benzoyl}(methyl)amino]-N′-methylpropanediamide] | > 8.00 |
| CNC(=O)C(C(=O)NO)N(C)C(=O)c1ccc(-c2ccc3c(c2)COC3)cc1 (stereo not shown) [Compound 290, 2-[{[4-(1,3-dihydro-2-benzofuran-5-yl)phenyl]carbonyl}(methyl)amino]-N-hydroxy-N′-methylpropanediamide] | > 8.00 |
| CNC(=O)C(C(=O)NO)N(C)C(=O)c1ccc(-c2cccc(OC)n2)cc1 (stereo not shown) [Compound 296, N-hydroxy-2-[{[4-(6-methoxypyridin-2-yl)phenyl]carbonyl}(methyl)amino]-N′-methylpropanediamide] | < 7.00 |
| O=C(NC(C(=O)NO)C(=O)NCC1CCC1)c1ccc(-c2ccc(OCCO)cc2)cc1 (stereo not shown) [Compound 128, N-(cyclobutylmethyl)-N′-hydroxy-2-({[4′-(2-hydroxyethoxy)biphenyl-4-yl]carbonyl}amino)propanediamide] | > 8.00 |
| CNC(=O)C(C(=O)NO)N(C)C(=O)c1ccc(-c2ccc(OCC(C)C)cc2)cc1 (stereo not shown) [Compound 214, N-hydroxy-N′-methyl-2-(methyl {[4′-(2-methylpropoxy)biphenyl-4-yl]carbonyl}amino)propanediamide] | > 8.00 |
| CNC(=O)C(C(=O)NO)N(C)C(=O)c1ccc(-c2ccc3c(c2)cc(CO)n3C)cc1 (stereo not shown) [Compound 41, N-hydroxy-2-[{4-[2-(hydroxymethyl)-1-methyl-1H-indol-5-yl]benzoyl}(methyl)amino]-N′-methylpropanediamide] | > 8.00 |
| CNC(=O)C(C(=O)NO)N(C)C(=O)c1ccc(-c2ccc(C(F)(F)F)cn2)cc1 (stereo not shown) [Compound 297, N-hydroxy-N′-methyl-2-[methyl({4-[5-(trifluoromethyl)pyridin-2-yl]phenyl}carbonyl)amino]propanediamide] | < 7.00 |
| CCC(F)(F)c1ccc(-c2ccc(C(=O)N(C)C(C(=O)NC)C(=O)NO)cc2)cc1 (stereo not shown) [Compound 251, 2-[{[4′-(1,1-difluoropropyl)biphenyl-4-yl]carbonyl}(methyl)amino]-N-hydroxy-N′-methylpropanediamide] | > 8.00 |
